How the values were obtained:
[1] = tested on: HDF cells; experiment: Cell adherence test with HDF cells; type: cell-based, human; details: for CELL ADHESION [%]: peptide/BSA conjugates bound to polystyrene, approx. 35 nmol peptide per well, 1 hour at 37° C., fibronectin positive control, BSA negative control; for adherence promoting effect for HDF cells (in words): BSA conjugates
Protocol: (§1) 50 μl each of the peptide/BSA conjugates or the peptides were placed, in different concentrations, in the wells of a 96-well flat-bottomed microtiter plate (DYNATECH). After drying for 2 hours at 37° C., unbound peptide/BSA conjugate or peptide is removed by washing with phosphate-buffered saline solution (PBS) several times. In order to prevent the non-specific adhesion of the cells to polystyrene, all the wells were subsequently saturated for 30 min. at 37° C. with heat-denatured BSA (2 mg/ml). Following that, it was once again washed with PBS.
As a positive control for the adhesion capacity, bovine fibronectin (Paesel & Lorey, 1 mg/ml) was used, and heat-denatured BSA (2 mg/ml) as a negative control; this is not capable of influencing intercellular adhesion.
(§2) The cell adherence test was performed with AKR-2B mouse fibroblasts (Shipley et al., Cancer Res. 44 (1984) 710-716) and human dermal fibroblasts (HDF, removed from the lower arm, 18th passage). AKR-2B cells were cultivated in McCoy's medium (10% calf serum), and HDF cells in Dulbecco's modified eagle medium (DMEM) in the presence of 10% foetal calf serum (FCS) and 1% streptomycin/penicillin. For the adherence test, the cells were washed twice with protein-free HYBRI-MAX™ (medium for culture of hybridoma cell types containing 1 mM Mn^2+ and 0.02% heat-denatured BSA) medium (SIGMA) and then taken up in Hybri-Max (1 mM Mn^2+, 0.02% heat-denatured BSA). In this way, it was largely ensured that neither protein components from the culture medium, nor serum components, such as fibronectin for example, could influence the adherence test. In each well of the microtiter plate previously filled with test substance (peptide concentration per well: approx. 35 nmol), 200 μl of the cell suspension taken up in HYBRI-MAX™ (medium for culture of hybridoma cell types containing 1 mM Mn^2+ and 0.02% heat-denatured BSA) (1 mM Mn^2+, 0.02% heat-denatured BSA) (1.5×10^5 cells/well) were pipetted and incubated for 1 hour in an incubator at 37° C., 5% CO2 atmosphere. After that, the supernatant was decanted off, and non-adhered cells were removed by washing with PBS. The adhered cells were fixed for 0.5 min with methanol and stained with the MERCK HEMACOLOR™ (colution for fast staining in microscopy) reagent kit in order to quantify the number of cells.

[2] = tested on: HDF cells; experiment: Chemotaxis test using HDF cells (modified Boyden chambers); type: cell-based, human; details: 4 hours at 37° C., medium control deducted, Collagen 0.3 nmol/ml, Fibronectin 0.6 nmol/ml, peptides 1 μmol/ml
Protocol: In addition to wound contraction, the epithelialisation of the wound as a result of the migration of cells from the edges of wounds plays a significant role in wound repair. Some selected peptides were investigated in chemotaxis tests in order to study their ability to simulate the migration of HDF cells. The test was conducted in accordance with Scharffetter-Kochanek et al. (J. Invest. Dermatol. 98 (1992) 3-11) in modified Boyden chambers. In the lower cavity of the Boyden chamber, 210 μl DMEM (control) or the potential chemoattractant taken up in the same volume of DMEM were placed. […] 2×10^5 cells were pipetted into the upper Boyden chamber (volume 810 μl). The incubation time was 4 hours at 37° C. The results for the peptides investigated are summed up in Tab. 5, with the figures for the medium control already having been deducted from these readings.

[3] = tested on: AKR-2B cells; experiment: Cell adherence test, dilution series on AKR-2B cells (EC50); type: cell-based, mouse; details: for EC50 (semi-maximum cell adherence): peptide/BSA conjugates diluted in PBS, read off from curve
Protocol: as §1, §2
For some selected conjugates, dilution series were included in order to determine binding constants for AKR-2B cells. For this purpose, the peptide/BSA conjugates were diluted in PBS, and 50 μl each of these dilutions were placed in the wells of a microtiter plate. Incubation and all the other steps were performed according to the method described above. After the readings had been plotted graphically, the difference between the figure for the maximum cell adherence and the zero value could be formed, and the EC50 values shown in Tab. 3 as a measure of the semi-maximum cell adherence could be read off from the line of the curve.
In order to establish binding constants for the peptides of the invention, dose effectiveness curves on AKR-2B cells were recorded for some selected conjugates. The EC50 values shown in Tab. 3 as a measure of semi-maximum cell adherence were read off from the curve concerned (plotted: cell adherence versus peptide concentration). Low EC50 values mean that only small quantities of the substances need to be used in order to achieve a semi-maximum effect, in other words that the substance is very effective.

[4] = tested on: AKR-2B cells; experiment: Competitive inhibition test (adherence of AKR-2B cells to BSA/AP#2 conjugate); type: cell-based, mouse; details: for Inhibition (maximum measured reduction in cell adherence): soluble peptide 1 μmol/well, AKR-2B cells, plates coated with BSA/AP#2 conjugate 10 nmol/well; for inhibitory effect on the attachment of AKR-2B cells (in words): soluble peptides, competition with BSA/AP#2 conjugate
Protocol: Via the specific saturation of surface receptors (shown schematically in FIG. 3E), it is possible, in the case of soluble peptides, to measure an inhibitory effect on the adhesion of test cells (AKR-2B). In the experiment described here, a selected peptide/BSA conjugate corresponding to a peptide concentration of 10 nmol/well was placed in the microtiter plates and incubated for 2 hours at 37° C. Unsaturated binding sites in the culture vessel were subsequently saturated for 30 minutes with heat-denatured BSA (2 mg/ml). The peptides were dissolved in HYBRI-MAX™ (medium for culture of hybridoma cell types containing 1 mM Mn^2+ and 0.02% heat-denatured BSA) Medium (0.02 % BSA, 1 mM Mn^2+), and the pH was adjusted to a level of 7.2 to 7.4. Following that, the peptide solutions were treated with Reductacryl®. […] From these stock solutions, dilution series were prepared in HYBRI-MAX™ (medium for culture of hybridoma cell types containing 1 mM Mn^2+ and 0.02% heat-denatured BSA) medium (1 mM Mn^2+, 0.02% heat-denatured BSA), and added to the AKR-2B cells taken up in the same medium. After that, the specimens were incubated for 10 minutes at 37° C., while being gently shaken. The cells pre-treated in this way (1.5×10^5 /200 μl) were subsequently transferred to the conjugate-coated microtiter plates. The further treatment of the test plates was performed by analogy with 4.1.
The inhibitory effect of the peptides is shown in Tab. 4 as the difference between the 100% figure (control, with no peptide in the medium), and the maximum measured reduction in cell adherence at a peptide concentration of 1 μmol/well. A figure of 100% would mean complete inhibition, i.e. the maximum effect.
For the peptides of the invention available in soluble form, i.e. in a form not bound to carrier molecules, it is possible to detect adhesion inhibiting properties which come about as a result of the specific blockade of epitopes on surface receptors of the test cells (cf. FIG. 3E).
The AP#2 peptide was selected as an internal standard. Compared to most of the other peptides of the invention (cf. Tab. 2), the adhesion promoting properties of BSA/AP#2 conjugates lie within a region of semi-maximum effectiveness. Experience has shown that, in order to detect inhibitory effects, it is favourable to measure in a range of less than optimum effect, since otherwise weak inhibitory effects might not be detected.

Row | Substance | CELL ADHESION [%] [1] [%] | adherence promoting effect for HDF cells (in words) [1] | also measured
1 | A-E-L-L-D-G-(C) (AELLDG; C-terminal Cys) [AP#24] | 32.7 | – | –
2 | Collagen: collagen I, positive control in chemotaxis test | – | – | Avge. no. of cells per field of vision [2]: 45.7; Chemotactic migration [%] [2]: 100.0%
3 | E-L-L-D-G-(C) [AP#25] | 47.7 | – | EC50 / binding constant on AKR-2B cells (in words) ([3]; peptide/BSA conjugates): better binding constant was obtained compared to the control; EC50 (semi-maximum cell adherence) [3]: 42.0 pmol/well; Inhibition (maximum measured reduction in cell adherence) [4]: 18.1%; inhibitory effect on the attachment of AKR-2B cells (in words) [4]: slightly less efficiency
4 | FN: bovine fibronectin (Paesel & Lorey, 1 mg/ml), positive control for the adhesion capacity | 100.0 | – | –
5 | Fibronectin | – | – | Avge. no. of cells per field of vision [2]: 43.9; Chemotactic migration [%] [2]: 96.0%
6 | G-G-G-A-G-G-G-S-S-G-S-G-(C) (GGGAGGGSSGSG; C-terminal Cys) [AP#11] | 30.5 | significant adhesion modifying effect | –
7 | G-G-G-S-G-G-G-S-S-G-S-G-(C) (GGGSGGGSSGSG; C-terminal Cys) [AP#10] | 27.5 | significant adhesion modifying effect | –
8 | G-I-V-R-T-P-L (GIVRTPL) [AP#9] | 93.0 | good effectiveness | EC50 (semi-maximum cell adherence) [3]: 50.7 pmol/well
9 | G-I-V-R-T-P-L-A-E-L (GIVRTPLAEL) [AP#8] | 78.2 | good effectiveness | EC50 (semi-maximum cell adherence) [3]: 41.7 pmol/well
10 | G-R-G-D-S-(C) [IVA1b, reference compound] | 93.8 | similarly good to those of fibronectin | –
11 | G-T-P-G-P-Q-G-I-A-G-Q-R-G-V-V-(C) (GTPGPQGIAGQRGVV; C-terminal Cys) [P-15, adhesion promoting fragment of the α-1(I) chain of collagen, reference compound] | 62.1 | slightly less effective | –
12 | G-V-V-S-T-P-L-V-N-L-I-N-G-(C) [AP#5] | 53.2 | – | –
13 | I-V-R-T-P--- -A-E-L-L-D-G-(C) (AELLDG; N-terminal IVRTP; C-terminal Cys) [AP#14] | 27.0 | – | –
14 | I-V-R-T-P-L-A-E-L-L-D-G-(C) [AP#13] | 37.3 | – | –
15 | L-A-E-L-L-D-G-(C) (LAELLDG; C-terminal Cys) [AP#21] | 43.5 | – | –
16 | L-A-E-L-L-D-G-E-(C) [AP#20] | 54.1 | increased adherence promoting effect | –
17 | L-A-E-L-L-D-G-E-G-(C) [AP#19] | 51.9 | increased adherence promoting effect | –
18 | L-A-E-L-L-D-G-E-G-Q-(C) [AP#18] | 11.9 | only have a basal adhesion promoting effect | –
19 | L-A-E-L-L-E-G-(C) (LAELLEG; C-terminal Cys) [AP#22] | 18.8 | somewhat reduced adherence efficacy | –
20 | L-A-E-L-L-L-G-(C) (LAELLLG; C-terminal Cys) [AP#23] | 26.4 | somewhat reduced adherence efficacy | –
21 | L-D-G-(C) [AP#27] | 23.3 | significant adhesion promoting effect | –
22 | L-L-D-G-(C) [AP#26] | 31.3 | – | –
23 | Q-I-D-F-N-R-L-F-T-H-P-V-T-D-L-F-D-P-(C) [AP#1] | 72.5 | Particularly good effectiveness | EC50 (semi-maximum cell adherence) [3]: 32.9 pmol/well
24 | R-T-P--- -A-E-L-L-D-G-(C) [AP#16] | 21.4 | – | –
25 | R-T-P-L-A-E-L-L-D-G-(C) [AP#15] | 28.5 | – | –
26 | S-V-T-L-G-(C) [SVTLG, reference compound] | 72.1 | slightly less effective | EC50 (semi-maximum cell adherence) [3]: 64.5 pmol/well
27 | T-V-L-R-N-I-Q-E-L-L-D-G-E-(C) [AP#12] | 74.2 | – | EC50 (semi-maximum cell adherence) [3]: 29.0 pmol/well
28 | V-T-G-R-G-D-S-P-A-(C) [IVA1, reference compound] | 93.9 | similarly good to those of fibronectin | EC50 (semi-maximum cell adherence) [3]: 0.73 pmol/well; Inhibition (maximum measured reduction in cell adherence) [4]: 2.6%; inhibitory effect on the attachment of AKR-2B cells (in words) [4]: virtually no effect
